Emax and EC50 data for 29 compounds are collected here from patent publication US10370366B2 (Flatley Discovery Lab, LLC, priority 2013, dated 2019).

Usually EC50 stands for the concentration needed to bring the measured effect to its halfway point.

The experiment deals with T1, human F508del CFTR (Homo sapiens, UniProt P13569, DEL508-508).
T1 construct: expressed in transfected cells; host or cells: Fisher Rat Thyroid (FRT) cells
Put plainly: CFTR-YFP High Throughput Assay. In kind it is cell-based. The conditions noted are these: FRT cells expressing human F508del CFTR and YFP; for Emax: EMax normalized to the positive control, read-out: % Efficacy. Summed up: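 Corrector mode: 24-26 h compound exposure (2 nM-40 μM, 37° C) of FRT cells carrying human F508del CFTR and YFP-H148Q/I152L, followed by washing and 60-120 min RT stimulation with 20 μM forskolin and 30 μM P3. CFTR activity is the least-squares-fitted rate of YFP quenching (Ex 500/Em 540 nm) after iodide addition.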

Molecules are shown by their SMILES. A value given as a limit tells only on which side of the number the result lay.

T1 sequence (P13569 with tags, fused parts or gaps DEL508-508): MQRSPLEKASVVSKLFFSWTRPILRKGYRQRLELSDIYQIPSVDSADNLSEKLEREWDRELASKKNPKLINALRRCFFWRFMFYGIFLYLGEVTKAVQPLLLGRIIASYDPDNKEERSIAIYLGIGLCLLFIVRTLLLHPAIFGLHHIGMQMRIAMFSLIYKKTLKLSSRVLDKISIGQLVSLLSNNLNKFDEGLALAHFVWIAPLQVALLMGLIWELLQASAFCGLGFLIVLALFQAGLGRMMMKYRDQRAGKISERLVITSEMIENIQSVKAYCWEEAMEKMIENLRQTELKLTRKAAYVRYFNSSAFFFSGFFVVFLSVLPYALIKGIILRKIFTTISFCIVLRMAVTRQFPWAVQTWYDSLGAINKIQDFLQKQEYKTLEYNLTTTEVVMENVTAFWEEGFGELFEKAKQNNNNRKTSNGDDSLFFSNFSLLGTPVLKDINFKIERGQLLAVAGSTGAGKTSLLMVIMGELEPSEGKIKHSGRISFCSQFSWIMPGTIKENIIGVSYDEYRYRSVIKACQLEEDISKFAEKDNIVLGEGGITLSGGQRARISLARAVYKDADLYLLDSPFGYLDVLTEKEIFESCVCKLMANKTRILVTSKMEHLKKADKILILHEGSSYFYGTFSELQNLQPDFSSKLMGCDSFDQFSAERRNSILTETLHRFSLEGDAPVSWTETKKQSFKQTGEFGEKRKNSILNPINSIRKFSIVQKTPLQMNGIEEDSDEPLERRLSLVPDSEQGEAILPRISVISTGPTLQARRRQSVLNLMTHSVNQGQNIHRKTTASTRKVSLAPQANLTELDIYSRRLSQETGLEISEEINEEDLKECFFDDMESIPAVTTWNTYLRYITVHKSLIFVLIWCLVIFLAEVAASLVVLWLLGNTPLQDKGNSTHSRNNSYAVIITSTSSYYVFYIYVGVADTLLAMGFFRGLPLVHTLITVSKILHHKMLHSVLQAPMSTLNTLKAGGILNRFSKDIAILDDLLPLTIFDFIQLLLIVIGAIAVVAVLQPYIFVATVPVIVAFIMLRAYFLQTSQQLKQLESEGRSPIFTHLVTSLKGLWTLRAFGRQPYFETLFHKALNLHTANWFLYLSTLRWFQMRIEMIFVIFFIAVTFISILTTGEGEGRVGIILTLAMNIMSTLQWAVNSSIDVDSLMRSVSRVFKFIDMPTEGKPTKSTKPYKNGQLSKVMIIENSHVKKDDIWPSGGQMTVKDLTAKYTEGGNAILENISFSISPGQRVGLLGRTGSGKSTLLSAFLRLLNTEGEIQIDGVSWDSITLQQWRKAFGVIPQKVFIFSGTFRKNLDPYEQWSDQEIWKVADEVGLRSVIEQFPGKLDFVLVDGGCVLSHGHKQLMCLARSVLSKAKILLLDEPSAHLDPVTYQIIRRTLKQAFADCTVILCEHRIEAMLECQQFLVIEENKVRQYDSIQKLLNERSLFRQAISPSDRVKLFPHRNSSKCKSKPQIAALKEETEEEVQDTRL

Consider `COc1ccc2c(-c3cccc(C#N)c3)nn(CC(=O)C3(c4ccc5c(c4)OC(F)(F)O5)CC3)c(=O)c2c1` [Example 252, 3-(3-(2-(1-(2,2-difluorobenzo[d][1,3]dioxol-5-yl)cyclopropyl)-2-oxoethyl)-6-methoxy-4-oxo-3,4-dihydrophthalazin-1-yl)benzonitrile], for which the Emax is more than 80% and the EC50 was less than 10 µM. On to `CCN(C(=O)c1nn(-c2ccc(C)cc2)c(=O)c2c1c1ccccc1n2CC(=O)O)c1ccccc1` [Example 224, 2-(1-(ethyl(phenyl)carbamoyl)-4-oxo-3-(p-tolyl)-3H-pyridazino[4,5-b]indol-5(4H)-yl)acetic acid], for which the Emax is 30 to 80%. Same read-out and setting: with `CCN(C(=O)Cn1nc(Cc2cccnc2)c2cc(OC)ccc2c1=O)c1ccc2c(c1)OC(F)(F)O2` [Example 51, N-(2,2-difluorobenzo[d][1,3]dioxol-5-yl)-N-ethyl-2-(6-methoxy-1-oxo-4-(pyridin-3-ylmethyl)phthalazin-2(1H)-yl)acetamide] the figure was 30 to 80%.

As to `CCN(C(=O)Cn1ncc2c([nH]c3ccccc32)c1=O)c1ccc2c(c1)OC(F)(F)O2` [Example 222, N-(2,2-difluorobenzo[d][1, 3]dioxol-5-yl)-N-ethyl-2-(4-oxo-4,5-dihydro-3H-pyridazino[4,5-b]indol-3-yl)acetamide], the Emax lay in the range of 30 to 80% and the EC50 is more than 20 µM. As to `Cc1ccc(-n2nc(C(=O)N(CC#N)c3ccccc3)c3c4ccccc4n(C)c3c2=O)cc1` [Example 154, N-(cyanomethyl)-5-methyl-4-oxo-N-phenyl-3-(p-tolyl)-4,5-dihydro-3H-pyridazino[4,5-b]indole-1-carboxamide], the Emax is 30 to 80%. `CCN(C(=O)Cn1nc(-c2ccc(C(N)=O)cc2)c2ccc(OC)cc2c1=O)c1ccc2nc(C)oc2c1` [Example 84, 4-(3-(2-(ethyl(2-methylbenzo[d]oxazol-6-yl)amino)-2-oxoethyl)-6-methoxy-4-oxo-3,4-dihydrophthalazin-1-yl)benzamide]: the Emax lay within 30 to 80%.

Take `CCc1ccc(N(CC)C(=O)Cn2nc(-c3cccc(N)c3)c3ccccc3c2=O)cc1` [Example 8, 2-(4-(3-aminophenyl)-1-oxophthalazin-2(1H)-yl)-N-ethyl-N-(4-ethylphenyl)acetamide]: the Emax fell in the range of 30 to 80% and the EC50 is less than 10 µM.

Turning to `CCN(C(=O)c1nn(C(C)C)c(=O)c2c1c1ccccc1n2C)c1cccc(Cl)c1` [Example 201, N-(3-chlorophenyl)-N-ethyl-3-isopropyl-5-methyl-4-oxo-4,5-dihydro-3H-pyridazino[4,5-b]indole-1-carboxamide], the Emax was in the range of 30 to 80%. Same read-out and setting: as for `Cc1ccc(-n2nc(C(=O)N(CC(=O)O)c3ccccc3)c3c4ccccc4n(C)c3c2=O)cc1` [Example 163, 2-(5-methyl-4-oxo-N-phenyl-3-(p-tolyl)-4,5-dihydro-3H-pyridazino[4,5-b]indole-1-carboxamido)acetic acid], the figure is 30 to 80%. Regarding `CCOC(=O)c1ccc2c(=O)n(CC(=O)N(C)c3ccc4nc(C)oc4c3)nc(-c3cccc(Cl)c3)c2c1` [Example 66, ethyl 1-(3-chlorophenyl)-3-(2-(methyl(2-methylbenzo[d]oxazol-6-yl)amino)-2-oxoethyl)-4-oxo-3,4-dihydrophthalazine-7-carboxylate], the Emax was more than 80% and the EC50 was less than 10 µM. Take `CCN(C(=O)c1nn(-c2cnc3ccccc3c2)c(=O)c2c1c1ccccc1n2C)c1ccccc1` [Example 177, N-ethyl-5-methyl-4-oxo-N-phenyl-3-(quinolin-3-yl)-4,5-dihydro-3H-pyridazino[4,5-b]indole-1-carboxamide]: the Emax was in the range of 30 to 80%.

For `CCOC(=O)c1ccc2c(-c3cccc(Cl)c3)nn(CC(=O)N(C)c3ccc4nc(C)oc4c3)c(=O)c2c1` [Example 65, ethyl 1-(3-chlorophenyl)-3-(2-(methyl(2-methylbenzo[d]oxazol-6-yl)amino)-2-oxoethyl)-4-oxo-3,4-dihydrophthalazine-6-carboxylate], the Emax is more than 80% and the EC50 is less than 10 µM.

Regarding `CCN(C(=O)Cn1ncc2c(c1=O)c1ccccc1n2Cc1ccccc1C#N)c1ccc2c(c1)OC(F)(F)O2` [Example 141, 2-(5-(2-cyanobenzyl)-1-oxo-1H-pyridazino[4,5-b]indol-2(5H)-yl)-N-(2,2-difluorobenzo[d][1,3]dioxol-5-yl)-N-ethylacetamide], the Emax was 30 to 80%. For `CCN(C(=O)Cn1ncc2c(c1=O)c1ccccc1n2CC#N)c1ccc2c(c1)OC(F)(F)O2` [Example 139, 2-(5-(cyanomethyl)-1-oxo-1H-pyridazino[4,5-b]indol-2(5H)-yl)-N-(2,2-difluorobenzo[d][1,3]dioxol-5-yl)-N-ethylacetamide], the Emax lay in the range of 30 to 80% and the EC50 lay within 10 to 20 µM. The corresponding values for `CCN(C(=O)c1nn(C[C@@H](O)CO)c(=O)c2c1c1ccccc1n2C)c1ccccc1` [Example 229, (R)-3-(2,3-dihydroxypropyl)-N-ethyl-5-methyl-4-oxo-N-phenyl-4,5-dihydro-3H-pyridazino[4,5-b]indole-1-carboxamide] are 30 to 80% and less than 10 µM.

As for `CCN(C(=O)Cn1nc(Cc2cccnc2)c2ccc(C(C)(C)C)cc2c1=O)c1ccc2c(c1)OC(F)(F)O2` [Example 50, 2-(7-(tert-butyl)-1-oxo-4-(pyridin-3-ylmethyl)phthalazin-2(1H)-yl)-N-(2,2-difluorobenzo[d][1,3]dioxol-5-yl)-N-ethylacetamide], the Emax was more than 80%. On the same count and under the same terms, with `CCN(C(=O)c1nn(C2CCN(Cc3ccccc3)CC2)c(=O)c2c1c1ccccc1n2C)c1ccccc1` [Example 198, 3-(1-benzylpiperidin-4-yl)-N-ethyl-5-methyl-4-oxo-N-phenyl-4,5-dihydro-3H-pyridazino[4,5-b]indole-1-carboxamide] the figure was 30 to 80%. For `CCN(C(=O)c1nn(-c2ncccn2)c(=O)c2c1c1ccccc1n2C)c1ccccc1` [Example 171, N-ethyl-5-methyl-4-oxo-N-phenyl-3-(pyrimidin-2-yl)-4,5-dihydro-3H-pyridazino[4,5-b]indole-1-carboxamide], the Emax fell in the range of 10 to 30% and the concentration giving a half-maximal response (EC50) was more than 20 µM.

Turning to `CCN(C(=O)Cn1ncc2c(c1=O)c1ccccc1n2CCCOC)c1ccc2c(c1)OC(F)(F)O2` [Example 137, N-(2,2-difluorobenzo[d][1,3]dioxol-5-yl)-N-ethyl-2-(5-(3-methoxypropyl)-1-oxo-1H-pyridazino[4,5-b]indol-2(5H)-yl)acetamide], the Emax is 30 to 80%. Same read-out and setting: as for `CCN(CC)C(=O)c1nn(-c2ccc(C)cc2)c(=O)c2c1c1ccccc1n2C` [Example 155, N, N-diethyl-5-methyl-4-oxo-3-(p-tolyl)-4,5-dihydro-3H-pyridazino[4,5-b]indole-1-carboxamide], the figure is 30 to 80%.

For `CCN(C(=O)c1nn(CC2CCCO2)c(=O)c2c1c1ccccc1n2C)c1ccccc1` (stereo not drawn) [Example 216, N-ethyl-5-methyl-4-oxo-N-phenyl-3-((THF-2-yl)methyl)-4,5-dihydro-3H-pyridazino[4,5-b]indole-1-carboxamide], the Emax was in the range of 30 to 80% and the EC50 was less than 10 µM. In the case of `CCN(C(=O)c1nn(-c2ccccc2)c(=O)c2c1c1ccccc1n2C)c1ccncn1` [Example 151, N-ethyl-5-methyl-4-oxo-3-phenyl-N-(pyrimidin-4-yl)-4,5-dihydro-3H-pyridazino[4,5-b]indole-1-carboxamide], the Emax was in the range of 30 to 80%. Turning to `CCN(C(=O)c1nn(-c2ccc(C)cc2)c(=O)c2c1c1c(C)cccc1n2C)c1ccccc1` [Example 196, N-ethyl-5,9-dimethyl-4-oxo-N-phenyl-3-(p-tolyl)-4,5-dihydro-3H-pyridazino[4,5-b]indole-1-carboxamide], the Emax is more than 80% and the EC50 is more than 20 µM. Take `COc1ccc2c(-c3cccc(C#N)c3)nn(CC(=O)N(c3ccc4c(c3)OC(F)(F)O4)C3CC3)c(=O)c2c1` [Example 79, 2-(4-(3-cyanophenyl)-7-methoxy-1-oxophthalazin-2(1H)-yl)-N-cyclopropyl-N-(2,2-difluorobenzo[d][1,3]dioxol-5-yl)acetamide]: the Emax was more than 80%. Turning to `CCc1ccc(N(CC)C(=O)Cn2nc(-c3cccc(C(N)=O)c3)c3ccccc3c2=O)cc1` [Example 11, 3-(3-(2-(ethyl(4-ethylphenyl)amino)-2-oxoethyl)-4-oxo-3,4-dihydrophthalazin-1-yl)benzamide], the Emax lay in the range of 30 to 80% and the half-maximal effective concentration (EC50) was in the range of 10 to 20 µM. With `CCN(C(=O)Cn1ncc2c(c1=O)c1ccccc1n2Cc1cccc(OC)c1)c1ccc2c(c1)OC(F)(F)O2` [Example 135, N-(2,2-difluorobenzo[d][1,3]dioxol-5-yl)-N-ethyl-2-(5-(3-methoxybenzyl)-1-oxo-1H-pyridazino[4,5-b]indol-2(5H)-yl)acetamide], the Emax was 30 to 80% and the concentration for a half-maximal effect (EC50) is less than 10 µM.

For the compound `Cc1ccc(-n2nc(C(=O)N(c3ccccc3)C3CC3)c3c4ccccc4n(C)c3c2=O)cc1` [Example 153, N-cyclopropyl-5-methyl-4-oxo-N-phenyl-3-(p-tolyl)-4,5-dihydro-3H-pyridazino[4,5-b]indole-1-carboxamide], the Emax was 30 to 80%. `COc1ccc2c(c1)c1c(=O)n(CC(=O)N(C)c3ccc4nc(C)oc4c3)ncc1n2Cc1ccc(F)cc1` [Example 260, 2-(5-(4-fluorobenzyl)-8-methoxy-1-oxo-1,5-dihydro-2H-pyridazino[4,5-b]indol-2-yl)-N-methyl-N-(2-methylbenzo[d]oxazol-6-yl)acetamide]: the Emax is more than 80% and the EC50 is less than 10 µM. As for `CCN(C(=O)c1nn(Cc2ccccc2)c(=O)c2c1c1ccccc1n2C)c1ccccc1` [Example 197, 3-benzyl-N-ethyl-5-methyl-4-oxo-N-phenyl-4,5-dihydro-3H-pyridazino[4,5-b]indole-1-carboxamide], the Emax was in the range of 30 to 80%.
